Laboratory results published in ChEMBL document CHEMBL5352431 (Eur J Med Chem, 2022).
Several values for one entry are separate records, joined by “and”; a condition that tells them apart may be missing. Equal values may be shown once.

Experiments:
[1] = biological target: T1, Melatonin receptor type 1A (Homo sapiens, UniProt P48039); test: Displacement of 2-[125I]iodoMLT from human MT1 receptor expressed in mouse NIH3T3 cells incubated for 90 mins by Cheng-Prusoff equation analysis; format: cell-based
T1 sequence (P48039 whole entry): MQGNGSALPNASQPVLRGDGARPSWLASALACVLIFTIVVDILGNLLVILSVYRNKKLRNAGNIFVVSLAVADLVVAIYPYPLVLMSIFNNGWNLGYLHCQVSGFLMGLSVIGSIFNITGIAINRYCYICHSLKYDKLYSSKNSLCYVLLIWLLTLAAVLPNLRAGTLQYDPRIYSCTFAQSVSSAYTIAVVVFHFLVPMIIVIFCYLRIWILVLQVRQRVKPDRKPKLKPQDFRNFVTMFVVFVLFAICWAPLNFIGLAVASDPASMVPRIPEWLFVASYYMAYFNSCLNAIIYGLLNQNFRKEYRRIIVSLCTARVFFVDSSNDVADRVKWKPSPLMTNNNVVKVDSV

[2] = biological target: T2, Melatonin receptor type 1B (Homo sapiens, UniProt P49286); test: Displacement of 2-[125I]iodoMLT from human MT2 receptor expressed in mouse NIH3T3 cells incubated for 90 mins by Cheng-Prusoff equation analysis; format: cell-based
T2 sequence (P49286 whole entry): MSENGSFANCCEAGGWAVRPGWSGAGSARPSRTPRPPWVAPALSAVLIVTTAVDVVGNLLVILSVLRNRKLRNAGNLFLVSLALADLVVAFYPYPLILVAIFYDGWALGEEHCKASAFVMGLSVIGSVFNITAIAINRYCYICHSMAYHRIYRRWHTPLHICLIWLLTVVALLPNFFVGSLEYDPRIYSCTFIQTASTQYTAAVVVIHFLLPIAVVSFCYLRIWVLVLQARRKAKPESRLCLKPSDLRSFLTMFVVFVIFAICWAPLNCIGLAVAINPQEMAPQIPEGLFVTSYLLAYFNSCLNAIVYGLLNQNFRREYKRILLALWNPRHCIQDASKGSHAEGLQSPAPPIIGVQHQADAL

[3] = biological target: T2, Melatonin receptor type 1B; test: Binding affinity to MT2 receptor (unknown origin) assessed as inhibition constant
[4] = biological target: T1, Melatonin receptor type 1A; test: Binding affinity to MT1 receptor (unknown origin) assessed as inhibition constant
[5] = biological target: T1, Melatonin receptor type 1A; test: Displacement of 2-[125I]iodoMLT from recombinant human MT1 receptor expressed in African green monkey COS-7 cells incubated for 1.5 hrs by Cheng-Prusoff equation analysis; format: cell-based
[6] = biological target: T1, Melatonin receptor type 1A; test: Displacement of 2-[125I]iodoMLT from human MT1 receptor stably expressed in CHO cells by Cheng-Prusoff equation analysis; format: cell-based
[7] = biological target: T2, Melatonin receptor type 1B; test: Displacement of 2-[125I]iodoMLT from human MT2 receptor stably expressed in CHO cells by Cheng-Prusoff equation analysis; format: cell-based
[8] = biological target: T1, Melatonin receptor type 1A; test: Displacement of 2-[125I]iodoMLT from human MT1 receptor stably expressed in CHO cells incubated for 60 mins by Cheng-Prusoff equation analysis; format: cell-based

SMILES | Ki [1] | Ki [2] | other results
COc1ccc2[nH]c(-c3ccccc3)c(CCNC(C)=O)c2c1 | 0.0219 nM | 0.038 nM | –
CC(=O)NCCc1c(-c2cccc(O)c2)oc2ccc3c(c12)CCCO3 | – | – | Ki [3]: 0.21 nM; Ki [4]: 0.87 nM
COc1ccc2[nH]c(Cc3ccccc3)c(CCNC(C)=O)c2c1 | – | – | Ki [5]: 31.6 nM
COc1ccc2[nH]c(-c3ccc4ccccc4c3)c(CCNC(C)=O)c2c1 | 36.3 nM | 1.1 nM | –
COc1ccc2c(c1)c(CCNC(C)=O)c(-c1cccc3ccccc13)n2C | 12 nM and 33.9 nM and 12.9 nM | 0.309 nM and 0.575 nM and 0.126 nM | Ki [6]: 40.7 nM and 97.7 nM and 33.1 nM; Ki [7]: 0.302 nM and 0.38 nM and 0.288 nM
COc1ccc2[nH]c(Oc3ccccc3)c(CCNC(C)=O)c2c1 | 11.5 nM | 2.95 nM | –
COc1ccc2[nH]c(Sc3ccccc3)c(CCNC(C)=O)c2c1 | 0.977 nM | 0.0631 nM | –
COc1cccc(N(CCNC(C)=O)c2cccc(CO)c2)c1 | – | – | Ki [8]: > 100 nM
COc1ccc2[nH]c(-c3cccnc3)c(CCNC(C)=O)c2c1 | 0.17 nM | 0.0603 nM | –
COc1ccc2[nH]c(-c3cccc4[nH]ccc34)c(CCNC(C)=O)c2c1 | 14.8 nM | 0.295 nM | –
COc1ccc2[nH]c(-c3ccc(-c4ccccc4)cc3)c(CCNC(C)=O)c2c1 | 16.2 nM | 5.01 nM | –
COc1ccc2[nH]c(-c3cccc4ccccc34)c(CCNC(C)=O)c2c1 | 15.5 nM | 0.191 nM | –
COc1ccc2[nH]c(-c3cccc4ncccc34)c(CCNC(C)=O)c2c1 | 14.8 nM | 2.69 nM | –
